Test results as given in US20250326748A1, “COMPOUNDS AND METHODS FOR MODULATING SPLICING” (REMIX THERAPEUTICS INC., priority 2022, published 2025).

Experiments:
Type in all cases: cell-based, human
SMN2 mRNA = test: Splicing RT-qPCR panel, SMN2 canonical junction (CJ) mRNA; conditions: Homo sapiens, read-out: SMN2 CJ (decrease in CJ mRNA levels, IC50)
Procedure, shortened: (§1)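 A673 cells (DMEM, 10% FBS) or K562 cells (IMDM, 10% FBS) treated 24 h at 37 °C with an 11-point 3-fold dilution, top 10 uM, DMSO ≤0.25%. Canonical-junction mRNA quantified in lysates by RT-qPCR, normalised to GAPDH, GUSB or PPIA and to DMSO (2^−ΔΔCt), then converted to % response.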

Target C = test: HiBiT protein abundance assay, Target C (K562 HiBiT knock-in); conditions: HiBiT knock-in cells, 24 hours
Procedure, shortened: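 K562 HiBiT knock-in cells (10000/well) in IMDM + 1% FBS were treated for 24 h at 37° C. with a 10-point 3-fold dilution series (top 10 μM final), with DMSO ≤0.25%. Unmodified K562 served as baseline. HiBiT lytic luminescence was normalized to controls, and IC50 was interpolated at 50% from a four-parameter fit.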

Target C mRNA = test: Splicing RT-qPCR panel, Target C canonical junction (CJ) mRNA; conditions: Homo sapiens, read-out: Target C CJ (decrease in CJ mRNA levels, IC50)
Procedure, shortened: as §1

Row | Compound | IC50 (SMN2 mRNA) [nM] | IC50 (Target C) [nM] | IC50 (Target C mRNA) [nM]
1 | CN[C@@H]1CN(c2cnc3nc(-c4cc5cn(C)nc5c(C)c4O)ccc3c2)C[C@@H]1F [Compound 132, 5-{6-[(3S,4R)-3-fluoro-4-(methylamino)pyrrolidin-1-yl]-1,8-naphthyridin-2-yl}-2,7-dimethylindazol-6-ol] | < 100 | 100 to 1000 | 100 to 1000
2 | Cc1c(O)c(-c2ccc3cc(N4CCC(NCC5CC5)C4)cnc3n2)cc2cn(C)nc12 (stereo not drawn) [Compound 105, 5-(6-{3-[(cyclopropylmethyl)amino]pyrrolidin-1-yl}-1,8-naphthyridin-2-yl)-2,7-dimethylindazol-6-ol] | < 100 | < 100 | 1000 to 10000
3 | CCN[C@H]1CCN(c2cnc3nc(-c4cc5cn(C)nc5cc4O)cc(Cl)c3c2)C1 [Compound 318] | < 100 | 100 to 1000 | 1000 to 10000
4 | CN(c1cnc2nc(-c3cc4cn(C)nc4c(F)c3O)cc(Cl)c2c1)[C@H]1CCNC1 [Compound 275] | < 100 | 1000 to 10000 | 1000 to 10000
5 | CN(c1cnc2nc(-c3cc4cn(C)nc4c(F)c3O)cc(Cl)c2c1)[C@@H]1CCNC1 [Compound 276] | < 100 | 100 to 1000 | 1000 to 10000
6 | C[C@H]1CN(c2cnc3nc(-c4cc5cn(C)nc5c(F)c4O)cc(Cl)c3c2)C[C@H](C)N1 [Compound 280] | < 100 | < 100 | < 100
7 | C[C@H]1CN(c2cnc3nc(-c4cc(F)c5nn(C)cc5c4)cc(Cl)c3c2)C[C@@H](C2CC2)N1 [Compound 288] | < 100 | 1000 to 10000 | 1000 to 10000
8 | Cc1cn2cc(-c3cc(Cl)c4cc(N5C[C@@H](C)N[C@@H](C)C5)cnc4n3)cc(F)c2n1 [Compound 297] | < 100 | 1000 to 10000 | > 10000
9 | CN[C@H]1CCN(c2cnc3nc(-c4cc(C)c5nc(C)cn5n4)cc(Cl)c3c2)C1 [Compound 340] | < 100 | 100 to 1000 | 1000 to 10000
10 | CN[C@@H]1CN(c2cnc3nc(-c4cc5cn(C)nc5c(C)c4O)ccc3c2)C[C@H]1C [Compound 126, 2,7-dimethyl-5-{6-[(3R,4S)-3-methyl-4-(methylamino)382pyrrolidine-1-yl]-1,8-naphthyridin-2-yl}indazol-6-ol] | < 100 | 1000 to 10000 | 1000 to 10000
11 | Cc1c(O)c(-c2ccc3cc(N4CCC(NCC5CC5)C4)cnc3n2)cc2cn(C)nc12 (stereo in doubt) [Compound 119, 5-{6-[(3R)-3-[(cyclopropylmethyl)amino]pyrrolidin-1-yl]-1,8-naphthyridin-2-yl}-2,7-dimethylindazol-6-ol] | < 100 | 100 to 1000 | 100 to 1000
12 | Cc1c(O)c(-c2ccc3c(C(F)(F)F)c(N4CCNCC4)cnc3n2)cc2cn(C)nc12 [Compound 302, 2,7-dimethyl-5-[6-(piperazin-1-yl)-5-(trifluoromethyl)-1,8-naphthyridin-2-yl]indazol-6-ol] | 100 to 1000 | 1000 to 10000 | > 10000
13 | CN1CCC[C@@H]2CN(c3cnc4nc(-c5cc6cn(C)nc6c(F)c5O)cc(Cl)c4c3)C[C@@H]21 [Compound 303] | < 100 | 1000 to 10000 | > 10000
14 | Cc1cn2nc(-c3cc(Cl)c4cc(N5CCC(N6CCC6)CC5)cnc4n3)cc(C)c2n1 [Compound 349] | < 100 | 100 to 1000 | 100 to 1000
15 | C[C@@H]1CN(c2cnc3nc(-c4cc(C#N)c5nn(C)cc5c4)cc(Cl)c3c2)C[C@H](C)N1 [Compound 325, 5-(4-chloro-6-((3R,5S)-3,5-dimethylpiperazin-1-yl)-1,8-naphthyridin-2-yl)-2-methyl-2H-indazole-7-carbonitrile 2,2,2-trifluoroacetate] | < 100 | > 10000 | > 10000
16 | Cc1c(O)c(-c2cc(Cl)c3cc(N4CCC(N(C)C)C4)cnc3n2)cc2cn(C)nc12 (stereo not drawn) [Compound 143, 5-{4-chloro-6-[3-(dimethylamino)357pyrrolidine-1-yl]-1,8-naphthyridin-2-yl}-2,7-dimethylindazol-6-ol] | < 100 | 100 to 1000 | 100 to 1000
